According to BindingDB's records for doi:10.3109/14756366.2013.782024 (NAS of Ukraine, 2014):

biological target: Casein kinase II subunit alpha/beta (Homo sapiens, UniProt P68400); test: In Vitro Kinase Assay; conditions: pH 7.5; 30 °C
Procedure: Each test was performed twice in a total reaction volume of 30 μL, containing 6 μg of peptide substrate RRRDDDSDDD (New England Biolabs (UK) Ltd., Herts, UK); 10 units of recombinant human CK2 holoenzyme (New England Biolabs); 50 μM ATP and γ-labeled 32P ATP, diluted to specific activity 100 μCi/mM; CK2 buffer (20mM Tris-HCl, pH 7.5; 50mM KCl; 10mM MgCl2) and inhibitor in varying concentrations. Incubation time was 20 min at 30 °C. The reaction was stopped by adding an equal volume of 10% o-phosphoric acid and the reaction mixture was loaded onto 20-mm discs of phosphocellulose paper (Whatman plc, Kent, UK). Discs were washed three times with 1% o-phosphoric acid solution, air-dried at room temperature, and counted by the Cherenkov method in a beta-counter (LKB). As negative control an equal volume of DMSO was added to the reaction mixture. Quercetin, a known CK2 inhibitor, was used as an inhibition positive control. The final concentration of quercetin was 0.55 μM (which inhibited CK2 activity by 50%).

Structure (SMILES)	IC50 [µM]
CC1CS(=O)(=O)N(c2ccc(C(=O)Nc3ccc(C(=O)O)c(O)c3)cc2)C1=O (configuration not stated) [2-hydroxy-4-{[4-(4-methyl-1,1-dioxido-3-oxoisothiazolidin-2-yl)benzoyl]amino}benzoic acid (27)]	19.5
CC1CS(=O)(=O)N(c2ccc(C(=O)Nc3ccc(O)c(C(=O)O)c3)cc2)C1=O (configuration not stated) [2-hydroxy-5-{[4-(4-methyl-1,1-dioxido-3-oxoisothiazolidin-2-yl)benzoyl]amino}benzoic acid (25)]	> 30
O=C(O)c1cccc(NC(=O)c2ccc(N3C(=O)CCS3(=O)=O)cc2Cl)c1 [3-{[2-chloro-4-(1,1-dioxido-3-oxoisothiazolidin-2-yl)benzoyl]amino}benzoic acid (31)]	1.5
CC1CS(=O)(=O)N(c2ccc(C(=O)Nc3cc(C(=O)O)ccc3O)c(Cl)c2)C1=O (configuration not stated) [3-{[2-chloro-4-(4-methyl-1,1-dioxido-3-oxoisothiazolidin-2-yl)benzoyl]amino}-4-hydroxybenzoic acid (37)]	3.7
CC1CS(=O)(=O)N(c2ccc(C(=O)Nc3cccc(C(=O)O)c3)c(Cl)c2)C1=O (configuration not stated) [3-{[2-chloro-4-(4-methyl-1,1-dioxido-3-oxoisothiazolidin-2-yl)benzoyl]amino}benzoic acid (35)]	3.6
O=C(O)c1cccc(NC(=O)c2ccc(N3C(=O)CCS3(=O)=O)cc2)c1 [3-{[4-(1,1-dioxido-3-oxoisothiazolidin-2-yl)benzoyl]amino}benzoic acid (21)]	1.8
CC1(C)CS(=O)(=O)N(c2ccc(C(=O)Nc3cccc(C(=O)O)c3)cc2)C1=O [3-{[4-(4,4-dimethyl-1,1-dioxido-3-oxoisothiazolidin-2-yl)benzoyl]amino}benzoic acid (28)]	8
CC1CS(=O)(=O)N(c2ccc(C(=O)Nc3cccc(C(=O)O)c3)cc2)C1=O (configuration not stated) [3-{[4-(4-methyl-1,1-dioxido-3-oxoisothiazolidin-2-yl)benzoyl]amino}benzoic acid (24)]	3.1
CC1CS(=O)(=O)N(c2ccc(C(=O)Nc3cc(C(=O)O)ccc3O)cc2)C1=O (configuration not stated) [4-hydroxy-3-{[4-(4-methyl-1,1-dioxido-3-oxoisothiazolidin-2-yl)benzoyl]amino}benzoic acid (26)]	16
O=C(O)c1ccc(NC(=O)c2ccc(N3C(=O)CCS3(=O)=O)cc2Cl)cc1O [4-{[2-chloro-4-(1,1-dioxido-3-oxoisothiazolidin-2-yl)benzoyl]amino}-2-hydroxybenzoic acid (33)]	3
O=C(O)c1ccc(NC(=O)c2ccc(N3C(=O)CCS3(=O)=O)cc2Cl)cc1 [4-{[2-chloro-4-(1,1-dioxido-3-oxoisothiazolidin-2-yl)benzoyl]amino}benzoic acid (34)]	> 30
CC1CS(=O)(=O)N(c2ccc(C(=O)Nc3ccc(C(=O)O)c(O)c3)c(Cl)c2)C1=O (configuration not stated) [4-{[2-chloro-4-(4-methyl-1,1-dioxido-3-oxoisothiazolidin-2-yl)benzoyl]amino}-2-hydroxybenzoic acid (38)]	3.5
O=C(Nc1ccc(C(=O)O)c(O)c1)c1ccc(N2C(=O)CCS2(=O)=O)cc1 [4-{[4-(1,1-dioxido-3-oxoisothiazolidin-2-yl)benzoyl]amino}-2-hydroxybenzoic acid (23)]	14
CC1(C)CS(=O)(=O)N(c2ccc(C(=O)Nc3ccc(C(=O)O)c(O)c3)cc2)C1=O [4-{[4-(4,4-dimethyl-1,1-dioxido-3-oxoisothiazolidin-2-yl)benzoyl]amino}-2-hydroxybenzoic acid (30)]	> 30
CC1CS(=O)(=O)N(c2ccc(C(=O)NCCCC(=O)O)cc2)C1=O (configuration not stated) [4-{[4-(4-methyl-1,1-dioxido-3-oxoisothiazolidin-2-yl)benzoyl]amino}butanoic acid (42)]	> 30
O=C(O)c1cc(NC(=O)c2ccc(N3C(=O)CCS3(=O)=O)cc2Cl)ccc1O [5-{[2-chloro-4-(1,1-dioxido-3-oxoisothiazolidin-2-yl)benzoyl]amino}-2-hydroxybenzoic acid (32)]	9
CC1CS(=O)(=O)N(c2ccc(C(=O)Nc3ccc(O)c(C(=O)O)c3)c(Cl)c2)C1=O (configuration not stated) [5-{[2-chloro-4-(4-methyl-1,1-dioxido-3-oxoisothiazolidin-2-yl)benzoyl]amino}-2-hydroxybenzoic acid (36)]	6
O=C(Nc1ccc(O)c(C(=O)O)c1)c1ccc(N2C(=O)CCS2(=O)=O)cc1 [5-{[4-(1,1-dioxido-3-oxoisothiazolidin-2-yl)benzoyl]amino}-2-hydroxybenzoic acid (22)]	8
CC1(C)CS(=O)(=O)N(c2ccc(C(=O)Nc3ccc(O)c(C(=O)O)c3)cc2)C1=O [5-{[4-(4,4-dimethyl-1,1-dioxido-3-oxoisothiazolidin-2-yl)benzoyl]amino}-2-hydroxybenzoic acid (29)]	> 30
COC(=O)c1cc(NC(=O)c2ccc(N3C(=O)C(C)CS3(=O)=O)cc2Cl)ccc1O (configuration not stated) [Methyl 5-{[2-chloro-4-(4-methyl-1,1-dioxido-3-oxoisothiazolidin-2-yl)benzoyl]amino}-2-hydroxybenzoate (39)]	> 30
CC1CS(=O)(=O)N(c2ccc(C(=O)NCCC(=O)O)cc2)C1=O (configuration not stated) [N-[4-(4-methyl-1,1-dioxido-3-oxoisothiazolidin-2-yl)benzoyl]-b-alanine (41)]	> 30
CC1CS(=O)(=O)N(c2ccc(C(=O)NCC(=O)O)cc2)C1=O (configuration not stated) [N-[4-(4-methyl-1,1-dioxido-3-oxoisothiazolidin-2-yl)benzoyl]glycine (40)]	> 30
